# Measured values published in patent US5043166A, “Liposome/anthraquinone drug composition and method” (priority 1989, dated 1991).
# Read-outs that look alike come from different tables or passages of the source.
# Key:
# [1] = fluorescence of DXR-Fe(III) complex with SUVs (drug modification); format: physicochemical; conditions: in presence of SUVs with saturated and/or unsaturated phospholipids
# Description: The studies examined the binding of DXR to ferric iron, both in the presence and absence of small unilamellar vesicles (SUVs) formed from the saturated phospholipid dimyristylphosphatidylcholine (DMPC).
# One measure of this modification is a change in the 590/560 nm ratio of the fluorescence spectra, which would result from modification of the antracene ring.
# [2] = organ distribution of DXR after administration free or in liposomes; format: in vivo
# [3] = single injection survival with graded doses of F-DXR and L-DXR; set-up: species or system mice; conditions: mouse, in vivo, iv, 90 days
# Description: L-DXR was prepared as in Example I, to final DXR concentrations of 1, 1.5, 2, and 2.5 mg/ml, with corresponding phospholipid concentrations of 16, 24, 32, and 40 μmole/ml, respectively, and cholesterol concentrations of 6.4, 9.6, 12.8, and 16 μmole/ml, respectively. Free DXR (F-DXR) was prepared in sterile, pyrogen-free physiologic saline solution to final concentrations of 1, 1.5, 2, and 2.5 mg/ml.
# BALB/c male mice were treated intravenously with 4 different doses of F-DXR and L-DXR: 10, 15, 20, and 25 mg/kg, by administering about 1% total animal weight of the corresponding F-DXR or L-DXR formulation. […] No mortality was registered among animals treated with 15 and 10 mg/kg of L-DXR and 60% of the mice injected with 20 mg/kg survived throughout 90 days. F-DXR caused 100% of mortality in the groups injected with 25, 20, and 15 mg/kg and 20% mortality in the group receiving 10 mg/kg.
# [4] = liposome form, animals; cited from earlier work
# [5] = heart, read-out: DXR level in Heart
# [6] = intestine, read-out: DXR level in Intestine
# [7] = kidney, read-out: DXR level in Kidney
# [8] = liver, read-out: DXR level in Liver
# [9] = lungs, read-out: DXR level in Lungs
# [10] = skeletal muscle, read-out: DXR level in Skeletal Muscle
# [11] = spleen, read-out: DXR level in Spleen
smiles,measurement,setting,value
"COc1cccc2c1C(=O)c1c(O)c3c(c(O)c1C2=O)C[C@@](O)(C(=O)CO)C[C@@H]3O[C@H]1C[C@H](N)[C@H](O)[C@H](C)O1 [DXR, doxorubicin]",chemical modification with ferric iron,[1],relatively rapid and irreversible chemical modification
same,concentration at 1 h,[2]; [5],8400 ng/g
same,concentration at 5 h,[2]; [5],4200 ng/g
same,concentration at 24 h,[2]; [5],900 ng/g
same,concentration at 1 h,[2]; [6],5800 ng/g
same,concentration at 5 h,[2]; [6],3100 ng/g
same,concentration at 24 h,[2]; [6],1900 ng/g
same,concentration at 1 h,[2]; [7],31900 ng/g
same,concentration at 5 h,[2]; [7],19400 ng/g
same,concentration at 24 h,[2]; [7],6900 ng/g
same,concentration at 1 h,[2]; [8],30500 ng/g
same,concentration at 5 h,[2]; [8],16400 ng/g
same,concentration at 24 h,[2]; [8],3800 ng/g
same,concentration at 1 h,[2]; [9],13200 ng/g
same,concentration at 5 h,[2]; [9],8600 ng/g
same,concentration at 24 h,[2]; [9],3600 ng/g
same,concentration at 1 h,[2]; [10],2300 ng/g
same,concentration at 5 h,[2]; [10],2800 ng/g
same,concentration at 24 h,[2]; [10],590 ng/g
same,concentration at 1 h,[2]; [11],8100 ng/g
same,concentration at 5 h,[2]; [11],10700 ng/g
same,concentration at 24 h,[2]; [11],8800 ng/g
same,mortality at 2160 h,[3]; 10 mg/kg i.v.,20%
same,mortality at 2160 h,[3]; 15 mg/kg i.v.,100%
same,mortality at 2160 h,[3]; 20 mg/kg i.v.,100%
same,mortality at 2160 h,[3]; 25 mg/kg i.v.,100%
same,toxicity as judged by reduced mortality,[4],"significantly less toxic, as judged by reduced mortality"
